The numbers were not newly measured in patent publication US7309714B2, “Phenylalanine derivatives as dipeptidyl peptidase inhibitors for the treatment or prevention of diabetes” (Merck & Co., Inc., priority 2003, dated 2007), which cites them from elsewhere.

The target in data set [1] is T1, DP-IV (Homo sapiens, UniProt P27487).
T1 construct: GRF is rapidly degraded in plasma to GRF[3-44]; from tissue

In data set [2] the test system is cardiac allograft. The following applies: rats; survival doubled from day 7 to day 14.
Data set [3] deals with hematopoiesis. The following applies: mouse, cyclophosphamide-induced neutropenia.

T1 sequence (P27487 whole entry): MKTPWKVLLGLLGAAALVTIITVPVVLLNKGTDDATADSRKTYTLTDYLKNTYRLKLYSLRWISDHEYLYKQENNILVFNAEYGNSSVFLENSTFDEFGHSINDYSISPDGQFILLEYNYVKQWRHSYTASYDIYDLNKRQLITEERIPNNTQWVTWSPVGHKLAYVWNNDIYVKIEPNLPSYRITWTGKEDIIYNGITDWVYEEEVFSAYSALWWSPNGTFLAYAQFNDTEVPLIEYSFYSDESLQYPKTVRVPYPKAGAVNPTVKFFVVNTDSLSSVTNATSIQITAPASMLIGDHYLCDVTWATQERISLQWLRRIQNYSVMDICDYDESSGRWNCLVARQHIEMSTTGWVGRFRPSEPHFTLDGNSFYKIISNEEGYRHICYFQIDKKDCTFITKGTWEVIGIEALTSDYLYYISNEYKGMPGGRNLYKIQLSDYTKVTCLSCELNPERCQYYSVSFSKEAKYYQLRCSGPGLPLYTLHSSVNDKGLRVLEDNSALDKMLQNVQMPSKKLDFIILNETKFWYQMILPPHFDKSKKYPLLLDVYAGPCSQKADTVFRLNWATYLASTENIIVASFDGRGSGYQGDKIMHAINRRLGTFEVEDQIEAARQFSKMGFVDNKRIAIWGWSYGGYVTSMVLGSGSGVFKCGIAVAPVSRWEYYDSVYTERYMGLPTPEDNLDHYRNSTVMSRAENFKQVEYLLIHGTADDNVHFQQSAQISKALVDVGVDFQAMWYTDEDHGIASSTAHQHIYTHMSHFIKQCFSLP

Take `CC[C@H](C)[C@H](N)C(=O)N1CCC[C@H]1C(=O)N[C@H](C(=O)O)[C@@H](C)CC` [diprotin A]: the “effect on degradation of GRF to GRF[3-44] in plasma” value in data set [1] is recorded as “prevented”.
In the case of `CC(C)N1CCC(c2ccccc2)(c2ccccc2)CC1` [Prodipine, Pro-Pro-diphenyl-phosphonate], the cardiac allograft survival in data set [2] is given as 14 day.
Consider `CC(C)[C@H](N)C(=O)N1CCC[C@H]1B(O)O` [Val-Boro-Pro], for which the effect on hematopoiesis result in data set [3] is recorded as “stimulated hematopoiesis”.
